Measured values: PubChem BioAssay (NCI)
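Dose response: 5 concentrations. Exposure: 48 h. Format: 96-well plates. Endpoint: linear interpolation; highest concentration if not reached. GI50: concentration for 50% inhibition of growth. TGI is the concentration that stops growth completely.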

Assays:
Experiment in all cases: NCI-60 cell line screen, 48 h
[1] = tested on: 786-0 renal
[2] = tested on: A498 renal
[3] = tested on: A549 NSCLC
[4] = tested on: ACHN renal
[5] = tested on: CAKI-1 renal
[6] = tested on: CCRF-CEM leukemia
[7] = tested on: COLO 205 colon
[8] = tested on: DU-145 prostate
[9] = tested on: EKVX NSCLC
[10] = tested on: HCC-2998 colon
[11] = tested on: HCT-116 colon
[12] = tested on: HCT-15 colon
[13] = tested on: HL-60(TB) leukemia
[14] = tested on: HOP-62 NSCLC
[15] = tested on: HS 578T breast
[16] = tested on: HT29 colon
[17] = tested on: IGROV1 ovarian
[18] = tested on: K-562 leukemia
[19] = tested on: KM12 colon
[20] = tested on: LOX IMVI melanoma
[21] = tested on: M14 melanoma
[22] = tested on: MALME-3M melanoma
[23] = tested on: MDA-MB-231 breast
[24] = tested on: MDA-MB-435
[25] = tested on: MDA-N
[26] = tested on: MOLT-4 leukemia
[27] = tested on: NCI-H226 lung
[28] = tested on: NCI-H23 lung
[29] = tested on: NCI-H460 lung
[30] = tested on: NCI-H522 lung
[31] = tested on: NCI/ADR-RES ovarian
[32] = tested on: OVCAR-3 ovarian
[33] = tested on: OVCAR-4 ovarian
[34] = tested on: OVCAR-5 ovarian
[35] = tested on: OVCAR-8 ovarian
[36] = tested on: PC-3 prostate
[37] = tested on: RPMI-8226 leukemia
[38] = tested on: RXF 393 renal
[39] = tested on: SF-268 CNS
[40] = tested on: SF-295 CNS
[41] = tested on: SF-539 CNS
[42] = tested on: SK-MEL-28 melanoma
[43] = tested on: SK-MEL-5 melanoma
[44] = tested on: SN12C renal
[45] = tested on: SNB-19 CNS
[46] = tested on: SNB-75 CNS
[47] = tested on: SR leukemia
[48] = tested on: SW-620 colon
[49] = tested on: T-47D breast
[50] = tested on: TK-10 renal
[51] = tested on: U251 CNS
[52] = tested on: UACC-257 melanoma
[53] = tested on: UO-31 renal
[54] = tested on: BT-549 breast
[55] = tested on: HOP-92 NSCLC
[56] = tested on: MCF7 breast
[57] = tested on: SK-MEL-2 melanoma
[58] = tested on: SK-OV-3 ovarian
[59] = tested on: UACC-62 melanoma

CN(C)Cc1cc(C(=O)/C=C/c2ccc(Br)cc2)cc(CN(C)C)c1O
TGI [1]: 19 µM
TGI [2]: 30.4 µM
TGI [3]: 26.2 µM
TGI [4]: 15 µM
TGI [5]: 6.34 µM
TGI [6]: 26.7 µM
TGI [7]: 3.28 µM
TGI [8]: 25.1 µM
TGI [9]: 36.3 µM
TGI [10]: 27.8 µM
TGI [11]: 19.9 µM
TGI [12]: 25.3 µM
TGI [13]: 20.5 µM
TGI [14]: 17.2 µM
TGI [15]: 45.1 µM
TGI [16]: 12.5 µM
TGI [17]: 26.3 µM
TGI [18]: 10.8 µM
TGI [19]: 5.88 µM
TGI [20]: 5.43 µM
TGI [21]: 22.1 µM
TGI [22]: 34.6 µM
TGI [23]: 12.1 µM
TGI [24]: 37.9 µM
TGI [25]: 9.81 µM
TGI [26]: 19.6 µM
TGI [27]: 35.9 µM
TGI [28]: 33 µM
TGI [29]: 21.9 µM
TGI [30]: 12.6 µM
TGI [31]: > 100 µM
TGI [32]: 17 µM
TGI [33]: 28.8 µM
TGI [34]: 34 µM
TGI [35]: 20.8 µM
TGI [36]: 10.2 µM
TGI [37]: 26.8 µM
TGI [38]: 17.1 µM
TGI [39]: 50.3 µM
TGI [40]: 19 µM
TGI [41]: 31.9 µM
TGI [42]: 25.3 µM
TGI [43]: 28.5 µM
TGI [44]: 14.8 µM
TGI [45]: 26.6 µM
TGI [46]: 35.3 µM
TGI [47]: 50.6 µM
TGI [48]: 16 µM
TGI [49]: 37.9 µM
TGI [50]: 27.4 µM
TGI [51]: 33.5 µM
TGI [52]: 19.5 µM
TGI [53]: 9.04 µM

O=C(C[C@@]1(O)C(=O)Nc2c(Cl)ccc(Cl)c21)c1ccc(C2CC2)cc1
GI50 [1]: 1.39 µM
TGI [1]: 20 µM
GI50 [2]: 0.213 µM
TGI [2]: 0.75 µM
GI50 [3]: 0.729 µM
TGI [3]: 24 µM
GI50 [4]: 0.726 µM
TGI [4]: 31.3 µM
GI50 [54]: 0.445 µM
TGI [54]: 11.7 µM
GI50 [5]: 0.214 µM
TGI [5]: 17.2 µM
GI50 [6]: 0.341 µM
TGI [6]: > 100 µM
GI50 [7]: 0.298 µM
TGI [7]: 2.13 µM
GI50 [8]: 0.492 µM
TGI [8]: 17.1 µM
GI50 [9]: 0.631 µM
TGI [9]: 30.7 µM
GI50 [10]: 0.888 µM
TGI [10]: 14.8 µM
GI50 [11]: 0.437 µM
TGI [11]: 11.9 µM
GI50 [12]: 0.102 µM
TGI [12]: 13.6 µM
GI50 [13]: 0.263 µM
TGI [13]: 1.07 µM
GI50 [14]: 0.516 µM
TGI [14]: 19.2 µM
GI50 [55]: 1.46 µM
TGI [55]: 19.7 µM
GI50 [15]: 0.305 µM
TGI [15]: 10 µM
GI50 [16]: 0.222 µM
TGI [16]: 13.7 µM
GI50 [17]: 0.446 µM
TGI [17]: 13.6 µM
GI50 [18]: 0.05 µM
TGI [18]: > 51.7 µM
GI50 [19]: 0.318 µM
TGI [19]: 14.2 µM
GI50 [20]: 0.541 µM
TGI [20]: 13.9 µM
GI50 [21]: 0.184 µM
TGI [21]: 13.8 µM
GI50 [22]: 0.542 µM
TGI [22]: 23.9 µM
GI50 [56]: 0.171 µM
TGI [56]: 18.2 µM
GI50 [23]: 0.798 µM
TGI [23]: 15.2 µM
GI50 [24]: 0.033 µM
TGI [24]: 0.232 µM
GI50 [26]: 0.505 µM
TGI [26]: 14.6 µM
GI50 [27]: 1.54 µM
TGI [27]: 19.7 µM
GI50 [28]: 0.634 µM
TGI [28]: 19.3 µM
GI50 [29]: 0.359 µM
TGI [29]: 11.4 µM
GI50 [30]: 0.0682 µM
TGI [30]: 14.1 µM
GI50 [31]: 0.212 µM
TGI [31]: 13.9 µM
GI50 [32]: 0.264 µM
TGI [32]: 3.71 µM
GI50 [33]: 6.01 µM
TGI [33]: 39.8 µM
GI50 [34]: 1.17 µM
TGI [34]: 17.5 µM
GI50 [35]: 0.577 µM
TGI [35]: 19.3 µM
GI50 [36]: 0.434 µM
TGI [36]: 20 µM
GI50 [37]: 0.433 µM
TGI [37]: 21.4 µM
GI50 [38]: 0.257 µM
TGI [38]: 4.03 µM
GI50 [39]: 1.3 µM
TGI [39]: 18.5 µM
GI50 [40]: 0.344 µM
TGI [40]: 13.3 µM
GI50 [41]: 0.286 µM
TGI [41]: 3.64 µM
GI50 [57]: 0.515 µM
TGI [57]: 18 µM
GI50 [42]: 3.5 µM
TGI [42]: 23.5 µM
GI50 [43]: 0.355 µM
TGI [43]: 11.6 µM
GI50 [58]: 0.613 µM
TGI [58]: 39.1 µM
GI50 [44]: 0.88 µM
TGI [44]: 17.7 µM
GI50 [45]: 0.69 µM
TGI [45]: 18.1 µM
GI50 [46]: 0.143 µM
TGI [46]: 0.588 µM
GI50 [47]: 0.0527 µM
TGI [47]: 15.4 µM
GI50 [48]: 0.19 µM
TGI [48]: 16.5 µM
GI50 [49]: 0.454 µM
TGI [49]: 32.5 µM
GI50 [50]: 15.1 µM
TGI [50]: 46.6 µM
GI50 [51]: 0.436 µM
TGI [51]: 16.2 µM
GI50 [52]: 12.4 µM
TGI [52]: 41.1 µM
GI50 [59]: 0.378 µM
TGI [59]: 15.6 µM
GI50 [53]: 0.585 µM
TGI [53]: 18.5 µM
